Values quoted from earlier work, collected in PMC3117075 (Journal of medicinal chemistry, 2011).

Target: BRCT(BRCA1) (Homo sapiens, UniProt P38398)
Details: previously reported value

BRCT(BRCA1), sequence (P38398 1646-1859 limits assumed): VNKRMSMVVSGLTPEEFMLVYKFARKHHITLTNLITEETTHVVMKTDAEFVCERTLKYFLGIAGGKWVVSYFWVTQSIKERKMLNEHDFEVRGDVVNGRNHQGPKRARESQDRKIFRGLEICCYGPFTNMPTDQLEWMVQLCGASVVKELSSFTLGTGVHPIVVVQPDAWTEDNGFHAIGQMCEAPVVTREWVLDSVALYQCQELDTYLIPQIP

ΔCp (change in heat capacity at constant pressure): -340 ± 30 cal mol-1 K-1
Substance: ISRSTpSPTFNKQT
